Assay results: patent US9624238B2, “4H-thieno[3,2-C]chromene-based inhibitors of Notum Pectinacetylesterase and methods of their use” (Lexicon Pharmaceuticals, Inc., priority 2011, dated 2017)

How the values were obtained:
[1] = biological target: T1, human notum pectinacetyltransferase (Homo sapiens, UniProt Q6P988); experiment: Binding assay (OPTS esterase substrate, fluorimetric); type: biochemical
T1 construct: made in house; unpurified conditioned medium used
T1 sequence (Q6P988 20-496): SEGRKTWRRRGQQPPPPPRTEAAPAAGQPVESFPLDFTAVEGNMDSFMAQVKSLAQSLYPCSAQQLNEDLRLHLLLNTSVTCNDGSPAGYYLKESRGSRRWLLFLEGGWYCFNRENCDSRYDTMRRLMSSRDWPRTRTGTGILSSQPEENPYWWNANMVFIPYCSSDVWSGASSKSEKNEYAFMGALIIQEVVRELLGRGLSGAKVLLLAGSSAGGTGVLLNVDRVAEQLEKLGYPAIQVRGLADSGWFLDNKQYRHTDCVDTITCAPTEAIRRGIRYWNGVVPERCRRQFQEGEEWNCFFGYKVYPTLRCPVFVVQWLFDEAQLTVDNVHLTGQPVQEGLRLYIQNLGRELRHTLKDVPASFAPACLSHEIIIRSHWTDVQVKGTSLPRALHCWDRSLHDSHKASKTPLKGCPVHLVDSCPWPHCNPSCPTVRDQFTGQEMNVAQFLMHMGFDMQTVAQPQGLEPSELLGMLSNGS
Protocol: Plasmid containing human notum pectinacetyltransferase in pcDNA3.1(+) vector was transfected into HEK (293 cells and clones were selecting by growing in presence of 400 ug/mL of G418. Condition media from these cells was used for the assay.

[2] = biological target: T1, human notum pectinacetyltransferase; experiment: Reporter assay (CellSensor LEF/TCF-bla FreeStyle 293F cells, Wnt3a and notum conditioned media); type: cell-based; settings: class symbols
Protocol: Plasmid containing human notum pectinacetyltransferase in pcDNA3.1(+) vector was transfected into HEK (293 cells and clones were selecting by growing in presence of 400 ug/mL of G418. The clone containing highest expression of human notum pectinacetyltransferase in the conditioned media was maintained for all future activity assays. L cells overexpressing and secreting Wnt3a into the conditioned media were purchased from ATCC.
The assay protocol was as follows. […] The cell growth medium consisted of DMEM with 10% Dialyzed FBS, 5 μg/ml Blasticidin (Invitrogen, R210-01), 0.1 mM NEAA, 25 mM HEPES and 1×GPS. Cells were then trypsinized by first rinsing with PBS, followed by addition of 5 mL of trypsin and incubation of plates at room temperature for two minutes. A total of 10 mL of assay media (Opti-MEM, plus 0.5% dialyzed FBS, 0.1 mM NEAA, 1 mM sodium pyruvate, 10 mM HEPES, 1×GPS) was then added per 15 cm plate. Cells were counted and suspended at 0.75 million cells per mL. […] After incubation of cells at 37° C. for 3 hours, 10 μL of 30 mM LiCl in assay medium was added per well, followed by incubation at 37° C. for another 3 hours. […] Ten μL of the Wnt3a/notum pentinacetyltransferase mixture was then transferred from Greiner plates to each well of the 384-well plates containing the CellSensor cells.

[3] = given as numeric bound above the legend's highest class
[4] = given as a numeric bound above the legend's range

Structure (SMILES)	IC50 [1, 3] [nM]	IC50 ([1]; class symbols) [nM]	other results
Cc1cc2c(cc1C)-c1sc(C(=O)O)cc1CS2	> 2000	–	–
Cc1cc2c(cc1C)-c1sc(C(N)=O)cc1CC2	–	< 2000	–
O=C(O)c1cc2c(s1)-c1c(F)cc(F)cc1OC2	–	< 2000	–
O=C(O)c1cc2c(s1)-c1c(F)cc(F)cc1SC2	–	< 1000	–
CC1(C)Cc2cc(C(=O)O)sc2-c2cc(Br)ccc21	–	–	IC50 [1, 4]: > 2000 nM
NC(=O)c1cc2c(s1)-c1cc(Br)cc(Cl)c1OC2	–	< 1000	EC50 [2]: < 50 nM
O=C(O)c1cc2c(s1)-c1cc(Br)cc(Cl)c1OC2	–	< 50	EC50 [2]: < 50 nM
NC(=O)c1cc(F)c2c(c1)-c1sc(C(=O)O)cc1CO2	> 2000	–	–
NC(=O)c1cc2c(s1)-c1cc(Cl)ccc1OC2	–	< 1000	–
NC(=O)c1cc2c(s1)-c1cc(Cl)cc(F)c1OC2	–	< 100	EC50 [2]: < 50 nM
N#Cc1cc(F)c2c(c1)-c1sc(C(=O)O)cc1CO2	–	< 1000	–
CC1Oc2ccc(F)cc2-c2sc(C(=O)O)cc21 (stereo not drawn)	–	< 1000	–
Cc1ccc2c(c1)-c1sc(C(=O)O)cc1CS2	–	–	IC50 [1, 4]: > 2000 nM
NC(=O)c1cc2c(s1)-c1c(cccc1C(F)(F)F)OC2	–	< 50	EC50 [2]: < 50 nM
Cc1cccc2c1-c1sc(C(=O)O)cc1CO2	–	–	IC50 [1, 4]: > 2000 nM
COc1ccc2c(c1Cl)CCc1cc(C(=O)NCCc3nnn[nH]3)sc1-2	–	< 1000	EC50 [2]: < 50 nM
O=C(NCCc1nnn[nH]1)c1cc2c(s1)-c1cccc(F)c1CC2	–	< 1000	EC50 [2]: < 50 nM
CN(C)CCNC(=O)c1cc2c(s1)-c1ccccc1CC2	> 2000	–	–
N#CCCNC(=O)c1cc2c(s1)-c1cccc(F)c1CC2	–	< 100	EC50 [2]: < 100 nM
O=C(NCCN1CCOCC1)c1cc2c(s1)-c1ccccc1CC2	> 2000	–	–
COCC1CCCN1C(=O)c1cc2c(s1)-c1cc(F)cc(F)c1SC2 (stereo not drawn)	> 2000	–	–
CCOC(=O)c1cc2c(s1)-c1cc(F)cc(Cl)c1SC2	–	–	IC50 ([1]; given as numeric bound above the legend's classes): > 2000 nM
CCOC(=O)c1cc2c(s1)-c1cccc(C#N)c1CC2	> 2000	–	–
CCOC(=O)c1cc2c(s1)-c1ccc(C)c(F)c1CC2	–	< 1000	–
CCOC(=O)c1cc2c(s1)-c1ccc(C#N)cc1CC2	> 2000	–	–
CCOC(=O)c1cc2c(s1)-c1cc(F)ccc1OC2C (stereo not drawn)	> 2000	–	–
CCOC(=O)c1cc2c(s1)-c1cc(F)ccc1OC2	–	–	IC50 [1, 4]: > 2000 nM
COC(=O)c1cc2c(s1)-c1ccccc1OC2	–	< 1000	–
CC(C)(C)OC(=O)CC1CCCN1C(=O)c1cc2c(s1)-c1cc(F)cc(F)c1SC2 (stereo not drawn)	> 2000	–	–
O=C(O)c1cc2c(s1)-c1sccc1CC2 [4,5-dihydrobenzo[1,2-b:6,5-b′]dithiophene-2-carboxylic acid]	–	–	EC50 [2]: < 1000 nM

The next lines start with results.

IC50 [1, 3] [nM]	IC50 ([1]; class symbols) [nM]	Structure (SMILES)	other results
–	< 2000	Cc1cc2c(cc1C)-c1sc(C(=O)O)cc1CC2	–
–	< 2000	O=C(O)c1cc2c(s1)-c1cc(Cl)ccc1SC2	–
> 2000	–	N#Cc1ccc2c(c1)-c1sc(C(=O)O)cc1CO2	–
> 2000	–	COc1ccc2c(c1)-c1sc(C(=O)O)cc1CO2	–
–	< 1000	Cc1ccc2c(c1)-c1sc(C(=O)O)cc1CO2	EC50 [2]: < 50 nM
–	< 2000	Cc1ccc2c(c1C)-c1sc(C(=O)O)cc1CC2	–
–	< 1000	Cc1ccc2c(c1C)-c1sc(C(N)=O)cc1CC2	–
–	< 1000	O=C(O)c1cc2c(s1)-c1c(cccc1C(F)(F)F)OC2	EC50 [2]: < 50 nM
> 2000	–	O=C(O)c1cc2c(s1)-c1c(Br)cccc1CC2	–
> 2000	–	N#Cc1cccc2c1-c1sc(C(=O)O)cc1CC2	–
> 2000	–	CS(=O)(=O)NC(=O)c1cc2c(s1)-c1ccccc1CC2	–
–	< 1000	CCCCNC(=O)c1cc2c(s1)-c1ccccc1CC2	–
–	< 1000	CCNC(=O)c1cc2c(s1)-c1ccccc1CC2	–
–	< 2000	O=C(NS(=O)(=O)O)c1cc2c(s1)-c1ccccc1CC2	–
> 2000	–	CCOC(=O)c1cc2c(s1)-c1ccc(Cl)cc1CC2	–
> 2000	–	CCOC(=O)c1cc2c(s1)-c1ccc(C)cc1CC2	–
–	< 1000	COC(=O)c1cc2c(s1)-c1ccccc1CC2	EC50 [2]: < 50 nM
